Data taken from patent US20080038359A1, “Stable Nanoparticle Formulations” (SANOFI-AVENTIS U.S. LLC, priority 2005, published 2008).

Tests used:
[1] = Solubility of Compound B in soy oil, estimated visually; format: physicochemical; details: oil or lipid, thermodynamic from solid; visual estimate by gradual addition of soy oil
Procedure: The solubility of Compound B in soy oil was initially estimated visually by gradual addition of soy oil to a weighed amount of the drug substance until the oil was almost clear (visually). An estimate of the drug substance in oil was calculated from the total amount of oil added.

[2] = generally known; cited from earlier work

SMILES | solubility [1] [µg/mL] | solubility in oils [2]
Cn1c2ccc(F)cc2c2c(C(=O)N3CCCC3)cn(-c3ccccc3)c(=O)c21 [Compound B, 6-Fluoro-9-methyl-2-phenyl-4-(pyrrolidin-1-ylcarbonyl)-2,9-dihydro-1H-pyrido[3,4-b]indol-1-one] | < 1000 | –
CCCCc1oc2ccc(C(=O)OC(C)C)cc2c1C(=O)c1ccc(CCCN(CCCC)CCCC)cc1.O=C(O)/C=C/C(=O)O [Compound C, Isopropyl 2-butyl-3-[4-[3-(dibutylamino)propyl]benzoyl]-1-benzofuran-5-carboxylate fumarate] | – | low solubility
